Test results taken from patent US20230149507A1, “TREATMENT OF ALT CANCERS” (INSTITUTO DE MEDICINA MOLECULAR JOÃO LOBO ANTUNES, priority 2019, published 2023).

Key:
U-2 OS cells [1] = experiment: TRF analysis of cells overexpressing FANCM variants; assay type: cell-based, human; details: overexpression
From the text: (a) Western immunoblotting of stable wild-type FANCM (FANCM+) or FANCM mutant overexpression in U-2 OS cells. […] (b) TRF analysis of U-2 OS cells overexpressing wild-type (FANCM+) or FANCM mutants. Gels were hybridized under native and denatured conditions with radiolabelled telomeric probes to detect the C-strand and G-strand. (c) Tukey boxplots of APB frequency (top panel) and mean APB telomere intensity (bottom panel) in U-2 OS cells overexpressing wild-type (FANCM+) or FANCM mutants. Out of 3 experiments, n=150 cells scored per variant, *p<0.05, **p<0.005, Mann-Whitney test.
(§1) Empty vector and wild-type FANCM (pCMV6-Myc-DDK) constructs were obtained from Origene Technologies. Wild type FANCM (SEQ ID NO: 2) and FANCM mutants (SEQ ID NOs: 19 to 28) were cloned into the pLenti-C-Myc-DDK-IRES-Neo backbone (Origene Technologies) by restriction enzyme subcloning of gene blocks synthesized by Integrated DNA Technologies (IDT). Lentivirus was produced by the Vector and Genome Engineering Facility (Children's Medical Research Institute). For stable overexpression, cells were transduced with lentivirus, allowed to recover for 24 h, and subject to G418 selection. Cells were maintained in G418 to ensure sustained overexpression.
Genomic DNA was digested with 4 U/μg of HinfI and RsaI overnight at 37° C. […]

U-2 OS cells [2] = experiment: C-circle assay in cells overexpressing FANCM variants; assay type: cell-based, human; details: stable overexpression, compared to vector control
From the text: (a) Schematic of FANCM domain interactions, mutations or deletions. For clarity, domains have been color coded by functional role (bottom panel). (b) Quantitation of metaphase-TIFs in U-2 OS cells stably overexpressing wild-type (FANCM+) or FANCM mutants. Scatterplot bars represent the mean±SEM. Out of 3 experiments, n≥110 metaphases scored for each mutant, *p<0.05, **p<0.005, Mann-Whitney test. (c) Quantitation of fragile telomeres in U-2 OS cells stably overexpressing wild-type (FANCM+) or FANCM mutants. Scatterplot bars represent the mean±SEM. Out of 3 experiments, n>100 metaphases scored for each mutant, *p<0.05, **p<0.005, Mann-Whitney test. (d) Representative dot blots and quantitation of C-circle assays in U-2 OS cells stably overexpressing wild-type (FANCM+) or FANCM domain mutants. C-circles were normalized to the mean of vector control. Error bars represent mean±SEM from n=3 experiments, *p<0.05, **p<0.005, Student's t-test. (e) Single molecule analysis of telomeric extension events (top panel) and length of extension events (bottom panel) in U-2 OS cells stably overexpressing wild-type (FANCM+) or FANCM domain mutants. Error bars represent mean±SEM of n≥350 fibers out of 3 experiments, *p<0.05, **p<0.005, Student's t-test.
FIG. 23. Defects in ALT phenotype suppression are exacerbated by overexpression of a double-mutant (DM) FANCM, in which both the MM2 domain (FF>AA) and the translocase domain (K117R) of FANCM are mutated. (a) Representative dot blots and quantitation of C-circle assays in U-2 OS cells stably overexpressing wild-type (WT) or FANCM domain mutants (K117R, FF>AA; DM). C-circles were normalized to the mean of empty vector control (EV). Error bars represent mean±SEM from n=3 experiments, *p<0.05, **p<0.005, Student's t-test. (b) Quantitation of APB frequency in U-2 OS cells overexpressing wild-type (WT) or FANCM mutants. Scatterplot bars represent the mean±SEM. Out of three experiments, n=150 cells were scored for each mutant, **p<0.005, Mann-Whitney test. (c) Quantitation of metaphase-TIFs in U-2 OS cells stably overexpressing wild-type (WT) or FANCM mutants. Scatterplot bars represent the mean±SEM. Out of three experiments, n=120 metaphases scored for each mutant, *p<0.05, **p<0.005, Mann-Whitney test. All statistical comparisons are relative to EV control.
as §1
C-circles were amplified with Phi29 polymerase using dATP, dTTP and dGTP overnight. Products were dot blotted onto Biodyne B membranes (Pall) and pre-hybridised in PerfectHyb Plus (Sigma) for at least 30 min. Radiolabeled telomeric C-probe was then added and blots were hybridized overnight at 37° C. (Henson et al., 2009). Blots were washed with 0.5×SSC, 0.1% SDS three times for 5 min each then exposed to phosphor screen. Imaging was performed on the Typhoon FLA 7000 system (GE Healthcare) with a PMT of 750 V.

| Substance | low molecular weight ss C-rich telomeric DNA (U-2 OS cells [1]) | C-circle levels (U-2 OS cells [2]) |
| --- | --- | --- |
| FF>AA: FANCM mutant (SEQ ID NO: 25), double substitution F1232A/F1236A within the MM2 domain | smear of low molecular weight ss C-rich telomeric DNA was observed | approximate two-fold increase in C-circles |
| K117R: FANCM mutant (SEQ ID NO: 20) substituted at K117R, DEAH domain disrupted | smear of low molecular weight ss C-rich telomeric DNA was observed | did not cause a change in C-circle levels |
